According to article PMC4321816 (Chemistry & biology, 2011):
Substitutions are numbered along the chain they refer to.

Assays:
[1] = molecular target: T1, PhnA (phosphonoacetate hydrolase; PhnA-N-His) (Sinorhizobium meliloti, UniProt Q92UV8); assay: co-crystal structure, […] Å; type: binding; conditions: covalent; transition state mimic on Thr68, di-zinc active site
T1 sequence (Q92UV8 1-424): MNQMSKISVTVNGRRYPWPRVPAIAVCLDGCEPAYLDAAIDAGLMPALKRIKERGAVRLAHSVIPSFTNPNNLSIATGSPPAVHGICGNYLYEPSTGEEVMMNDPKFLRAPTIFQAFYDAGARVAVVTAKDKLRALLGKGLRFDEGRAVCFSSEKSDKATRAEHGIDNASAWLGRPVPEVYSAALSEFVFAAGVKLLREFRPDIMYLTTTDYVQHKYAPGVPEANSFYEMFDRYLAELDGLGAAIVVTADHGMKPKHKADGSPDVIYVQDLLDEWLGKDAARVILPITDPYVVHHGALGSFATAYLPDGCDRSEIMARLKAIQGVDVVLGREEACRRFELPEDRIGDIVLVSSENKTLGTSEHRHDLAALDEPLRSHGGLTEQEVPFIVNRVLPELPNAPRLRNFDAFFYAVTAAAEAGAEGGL

[2] = molecular target: T2, PhnA (phosphonoacetate hydrolase; PhnA-N-His) (Sinorhizobium meliloti, UniProt Q92UV8, T68A); assay: co-crystal structure, […] Å; type: binding; conditions: with 2 mM ZnCl2; active site, phosphonate at M2, carboxylate at M1
T2 sequence (Q92UV8 1-424 T68A): T1 sequence (Q92UV8 1-424) with T68A

[3] = molecular target: T1, PhnA (phosphonoacetate hydrolase; PhnA-N-His); conditions: formed by turnover of phosphonoacetate; bidentate to metal M1

[O]=[V]([OH])([OH])[OH] [vanadate]
co-crystal structure, 1.8 Å (Table 1) [1]: we have determined the co-crystal structure of a covalent complex with orthovanadate

O=C(O)CP(=O)(O)O [phosphonoacetate]
co-crystal structure, 2.0 Å [2]: Crystals for the T68A mutant showed robust density for PnA in the active site

CC(=O)O [acetate]
crystal structure, 2.0 Å, crystals soaked with phosphonoacetate [3]: electron density consistent with an acetate ion bound to the M1 metal ion
